tested on: nerve cells in the CAl region of the hippocampus; assay: Protective action from delayed neuronal death (bilateral carotid ligation ischemia, residual hippocampal nerve cells); type: in vivo, mongolian jerbils; details: 3 mg/kg s.c., 30 minutes before ischemia; 1 week after 5 min ligation
Procedure: Those compounds that provide protection from and suppress delayed neuronal death described in Example 18 are considered to be promising as preventive and therapeutic agents for ischemic brain disorders, brain nerve cell disorders and dementia, which are problems that the present invention is attempting to solve. The pharmacological activity of the compounds of the present invention was evaluated in the manner below using jerbils for the animal model.
A midline incision was made in mongolian having body weights of 50-70 g under ether anesthesia. Blood flow through the carotid arteries on both sides was interrupted to create an ischemic state by ligating the vessels for 5 minutes. The test compound was administered subcutaneously either 30 minutes or 1 hour prior to ligation ischemia, and the rectal temperature of the animals was controlled to 37±2° C. using a heating pad or heater starting 5 minutes before to 30 minutes after ligation ischemia. 1 week after ligation, 4% neutral buffered formalin was perfused from the heart throughout the body followed by extraction of the brain. After post-fixing the extracted brain in the same solution, the tissue was prepared into sections after embedding in paraffin. The sections were stained with hematoxylin and eosin, and the number of nerve cells in the CAl region of the hippocampus over a width of 1 mm to the left and right was counted. The total number of nerve cells on the right and left sides was then used for evaluation.

Row | Compound | No. of Residual Nerve Cells
1 | CC(C)CN(C(=O)Cc1ccc(Cl)c(Cl)c1)[C@H]1CC[C@@]2(O)[C@H]3Cc4ccc(O)c5c4[C@@]2(CCN3CC2CC2)[C@H]1O5 [Compound 35, 17-cyclopropylmethyl-3,14β-dihydroxy-4,5α-epoxy-6α-(N-isobutyl-3,4-dichlorophenylacetoamido)morphinan] | 203.1 ± 40.1

same assay, conditions: conclusion from Table 2

Row | Compound | inhibition of defluxion of brain nerve cells caused by ischemia
2 | CN(C(=O)/C=C/c1cccc(C(F)(F)F)c1)[C@@H]1CC[C@@]2(O)[C@H]3Cc4ccc(O)c5c4[C@@]2(CCN3CC2CC2)[C@H]1O5 [Compound 42, 17-cyclopropylmethyl-3,14β-dihydroxy-4,5α-epoxy-6β-(N-methyl-3-trifluoromethylcinnamamido)morphinan] | significantly inhibited defluxion of brain nerve cells caused by ischemia
3 | CN(C(=O)/C=C/c1cccc([N+](=O)[O-])c1)[C@@H]1CC[C@@]2(O)[C@H]3Cc4ccc(O)c5c4[C@@]2(CCN3CC2CC2)[C@H]1O5 [Compound 78, 17-cyclopropylmethyl-3,14β-dihydroxy-4,5α-epoxy-6β-(N-methyl-3-nitrocinnamamido)morphinan] | significantly inhibited defluxion of brain nerve cells caused by ischemia
4 | CC(C)CN(C(=O)Cc1ccc(Cl)c(Cl)c1)[C@H]1CC[C@@]2(O)[C@H]3Cc4ccc(O)c5c4[C@@]2(CCN3CC2CC2)[C@H]1O5 [Compound 35, 17-cyclopropylmethyl-3,14β-dihydroxy-4,5α-epoxy-6α-(N-isobutyl-3,4-dichlorophenylacetoamido)morphinan] | significantly inhibited defluxion of brain nerve cells caused by ischemia
5 | CN(C(=O)CCCCCc1ccccc1)[C@H]1CC[C@@]2(O)[C@H]3Cc4ccc(O)c5c4[C@@]2(CCN3CC2CC2)[C@H]1O5 [Compound 34, 17-cyclopropylmethyl-3,14β-dihydroxy-4,5α-epoxy-6α-(N-methyl-6-phenylhexanoamido)morphinan] | significantly inhibited defluxion of brain nerve cells caused by ischemia
6 | Cc1cccc(/C=C/C(=O)N(C)[C@@H]2CC[C@@]3(O)[C@H]4Cc5ccc(O)c6c5[C@@]3(CCN4CC3CC3)[C@H]2O6)c1 [Compound 46, 17-cyclopropylmethyl-3,14β-dihydroxy-4,5α-epoxy-6β-(N-methyl-3-methylcinnamamido) morphinan] | significantly inhibited defluxion of brain nerve cells caused by ischemia

tested on: cultured nerve cells (cerebral cortex); assay: cells; type: cell-based, Wistar rat; details: Rattus norvegicus, Cerebral cortex neuron, 24 h, read-out: ED50

Row | Compound | EC50 [nM]
7 | CC(C)CN(C(=O)/C=C/c1cccc(C(F)(F)F)c1)[C@@H]1CC[C@@]2(O)[C@H]3Cc4ccc(O)c5c4[C@@]2(CCN3CC2CC2)[C@H]1O5 [Compound 65, 17-cyclopropylmethyl-3,14β-dihydroxy-4,5α-epoxy-6β-(N-isobutyl-3-trifluoromethylcinnamamido)morphinan] | 310

same assay, conditions: Rattus norvegicus, Cerebral cortex neuron; 10 mM glutamate, 24 hours at 37° C., LDH leakage; read-out: ED50 (the source's name)

Row | Compound | EC50 [nM]
8 | CN(C(=O)/C=C/c1cccc(C(F)(F)F)c1)[C@@H]1CC[C@@]2(O)[C@H]3Cc4ccc(O)c5c4[C@@]2(CCN3CC2CC2)[C@H]1O5 [Compound 42, 17-cyclopropylmethyl-3,14β-dihydroxy-4,5α-epoxy-6β-(N-methyl-3-trifluoromethylcinnamamido)morphinan] | 1800
9 | CN(C(=O)/C=C/c1ccsc1)[C@@H]1CC[C@@]2(O)[C@H]3Cc4ccc(O)c5c4[C@@]2(CCN3CC2CC2)[C@H]1O5 (relative stereo) [Compound 54, 17-cyclopropylmethyl-3,14β-dihydroxy-4,5α-epoxy-6β-[N-methyl-trans-3-(3-thienyl)acrylamido]morphinan] | 13500
10 | O=C(CCCCCc1ccccc1)N(CC(c1ccccc1)c1ccccc1)[C@@H]1CC[C@@]2(O)[C@H]3Cc4ccc(O)c5c4[C@@]2(CCN3CC2CC2)[C@H]1O5 [Compound 74, 17-cyclopropylmethyl-3,14β-dihydroxy-4,5α-epoxy-6β-[N-(2,2-diphenylethyl)-6-phenylhexanoamido)morphinan] | 220
11 | CN(C(=O)/C=C/c1cccc(N=C=S)c1)[C@@H]1CC[C@@]2(O)[C@H]3Cc4ccc(O)c5c4[C@@]2(CCN3CC2CC2)[C@H]1O5 [Compound 117, 17-cyclopropylmethyl-3,14β-dihydroxy-4,5α-epoxy-6β-(N-methyl-3-isothiocyanatocinnamamido)morphinan] | 9570
12 | CN([C@H]1CC[C@@]2(O)[C@H]3Cc4ccc(O)c5c4[C@@]2(CCN3CC2CC2)[C@H]1O5)S(=O)(=O)Cc1ccccc1 [Compound 112, 17-cyclopropylmethyl-3,14β-dihydroxy-4,5α-epoxy-6α-(N-methyl-phenylmethanesulfonamido)morphinan] | 1450
13 | CN(C(=O)Cc1ccccc1)[C@@H]1CC[C@@]2(O)[C@H]3Cc4ccc(O)c5c4[C@@]2(CCN3CC2CC2)[C@H]1O5 [Compound 47, 17-cyclopropylmethyl-3,14β-dihydroxy-4,5α-epoxy-6β-(N-methylphenylacetoamido)morphinan] | 17100
14 | Oc1ccc2c3c1O[C@H]1[C@H](N(CCc4ccccc4)Cc4ccccc4)CC[C@@]4(O)[C@@H](C2)N(CC2CC2)CC[C@]314 [Compound 10, 17-cyclopropylmethyl-3,14β-dihydroxy-4,5α-epoxy-6β-(N-2-phenethylbenzylamino)morphinan] | 280
15 | CCCCN(Cc1ccccc1)[C@@H]1CC[C@@]2(O)[C@H]3Cc4ccc(O)c5c4[C@@]2(CCN3CC2CC2)[C@H]1O5 [Compound 8, 17-cyclopropylmethyl-3,14β-dihydroxy-4,5α-epoxy-6β-(N-butylbenzylamino)morphinan] | 1200
16 | CN(Cc1ccccc1)[C@H]1CC[C@@]2(O)[C@H]3Cc4ccc(O)c5c4[C@@]2(CCN3CC2CC2)[C@H]1O5 [Compound 95, 17-cyclopropylmethyl-3,14β-dihydroxy-4,5α-epoxy-6α-(N-methylbenzylamino)morphinan] | 560
17 | CCCCN(C(=O)/C=C/c1cccc(C(F)(F)F)c1)[C@@H]1CC[C@@]2(O)[C@H]3Cc4ccc(O)c5c4[C@@]2(CCN3CC2CC2)[C@H]1O5 [Compound 66, 17-cyclopropylmethyl-3,14β-dihydroxy-4,5α-epoxy-6β-(N-butyl-3-trifluoromethylcinnamamido)morphinan] | 330
18 | CN(C(=O)C1CCCCC1)[C@H]1CC[C@@]2(O)[C@H]3Cc4ccc(O)c5c4[C@@]2(CCN3CC2CC2)[C@H]1O5 [Compound 31, 17-cyclopropylmethyl-3,14β-dihydroxy-4,5α-epoxy-6α-(N-methylcyclohexylcarboxamido)morphinan] | 2530
19 | Cc1cccc(/C=C/C(=O)N(C)[C@@H]2CC[C@@]3(O)[C@H]4Cc5ccc(O)c6c5[C@@]3(CCN4CC3CC3)[C@H]2O6)c1 [Compound 46, 17-cyclopropylmethyl-3,14β-dihydroxy-4,5α-epoxy-6β-(N-methyl-3-methylcinnamamido) morphinan] | 4420

— US5972953A, “Brain cell protective agent” (priority 1993, dated 1999)
